Residue numbers refer to the chain shown, from its start. Where a SMILES comes first, the peptide text is derived from it. Where no end group is shown, it is not given here.
How the values were obtained:
HLA-DPB1*0201 = target: T1, HLA-DPB1*0201 (Homo sapiens, UniProt P04440+P20036, A65V/A84D/A85E/K98E); assay: biochemical; format: binding
T1 sequence (P04440 30-258 A65V/A84D/A85E/K98E): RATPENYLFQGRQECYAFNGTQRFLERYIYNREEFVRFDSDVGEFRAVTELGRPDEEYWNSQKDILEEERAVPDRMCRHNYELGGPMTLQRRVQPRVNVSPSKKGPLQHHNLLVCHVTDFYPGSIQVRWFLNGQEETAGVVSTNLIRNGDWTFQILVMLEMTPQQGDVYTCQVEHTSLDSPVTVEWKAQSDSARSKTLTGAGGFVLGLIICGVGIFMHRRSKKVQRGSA
T1 sequence (P20036 29-260): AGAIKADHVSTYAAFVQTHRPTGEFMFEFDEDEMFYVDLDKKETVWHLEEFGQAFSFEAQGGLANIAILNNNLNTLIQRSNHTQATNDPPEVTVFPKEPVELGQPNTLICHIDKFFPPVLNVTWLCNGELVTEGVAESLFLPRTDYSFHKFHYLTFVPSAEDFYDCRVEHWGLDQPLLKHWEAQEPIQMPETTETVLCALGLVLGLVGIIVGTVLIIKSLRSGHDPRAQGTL

HLA-DPB1*0402 = target: T2, HLA-DPB1*0402 (Homo sapiens, UniProt P04440+P20036, A65V/A84D/A85E/L207M); assay: biochemical; format: binding
T2 sequence (P04440 30-258 A65V/A84D/A85E): T1 sequence (P04440 30-258 A65V/A84D/A85E/K98E) with E69K
T2 sequence (P20036 29-260): T1 sequence (P20036 29-260)

Row | Compound | IC50 (HLA-DPB1*0201) [nM] | IC50 (HLA-DPB1*0402) [nM]
1 | CC[C@H](C)[C@H](NC(=O)[C@H](CS)NC(=O)[C@@H]1CCCN1C(=O)[C@H](CCC(=O)O)NC(=O)[C@H](CO)NC(=O)CNC(=O)[C@@H](N)Cc1c[nH]cn1)C(=O)N[C@H](C(=O)N[C@@H](Cc1c[nH]cn1)C(=O)N[C@@H](CCCNC(=N)N)C(=O)NCC(=O)N[C@@H](CCCCN)C(=O)N1CCC[C@H]1C(=O)N[C@@H](Cc1ccccc1)C(=O)N[C@@H](CCC(N)=O)C(=O)N[C@@H](CC(C)C)C(=O)N[C@@H](CCC(=O)O)C(=O)N[C@@H](C)C(=O)N[C@H](C(=O)O)C(C)C)[C@@H](C)CC | 820 | 1410
2 | CC(C)C[C@H](NC(=O)[C@@H](NC(=O)[C@H](Cc1c[nH]cn1)NC(=O)[C@H](CO)NC(=O)[C@H](Cc1ccccc1)NC(=O)[C@H](CO)NC(=O)CNC(=O)CNC(=O)[C@H](CC(C)C)NC(=O)[C@H](Cc1ccc(O)cc1)NC(=O)[C@H](CCCNC(=N)N)NC(=O)[C@H](Cc1ccc(O)cc1)NC(=O)[C@H](CC(C)C)NC(=O)[C@@H]1CCCN1)C(C)C)C(=O)O | 13 | 149
3 | LTGYSLFQKEKMVLN | 180 | –
4 | FDRSTKVIDFHYPNE | – | 30400
5 | CC(C)C[C@H](NC(=O)[C@H](CO)NC(=O)[C@H](CCC(N)=O)NC(=O)[C@@H](N)CC(C)C)C(=O)N[C@H](C(=O)N[C@@H](CO)C(=O)N[C@@H](CCC(N)=O)C(=O)N[C@@H](Cc1ccc(O)cc1)C(=O)N[C@@H](Cc1ccccc1)C(=O)N[C@@H](CCC(N)=O)C(=O)N[C@H](C(=O)N[C@H](C(=O)N[C@@H](C)C(=O)N[C@@H](CC(=O)O)C(=O)N[C@@H](Cc1ccc(O)cc1)C(=O)O)C(C)C)[C@@H](C)O)C(C)C | 2.7 | –
6 | CC[C@H](C)[C@H](NC(=O)[C@H](CCC(N)=O)NC(=O)[C@H](CS)NC(=O)[C@H](Cc1ccc(O)cc1)NC(=O)[C@H](CC(N)=O)NC(=O)[C@H](CO)NC(=O)[C@@H](NC(=O)CNC(=O)[C@H](Cc1ccccc1)NC(=O)[C@H](CCCNC(=N)N)NC(=O)[C@H](CCC(N)=O)NC(=O)[C@H](C)NC(=O)[C@@H](N)CC(N)=O)[C@@H](C)CC)C(=O)O | 7.8 | 365
7 | CC(C)C[C@H](NC(=O)[C@@H](NC(=O)[C@H](CC(N)=O)NC(=O)[C@H](Cc1ccccc1)NC(=O)[C@H](CC(C)C)NC(=O)[C@H](CO)NC(=O)[C@H](Cc1c[nH]c2ccccc12)NC(=O)[C@@H](NC(=O)[C@@H](NC(=O)[C@H](Cc1c[nH]cn1)NC(=O)[C@H](CC(=O)O)NC(=O)[C@@H]1CCCN1C(=O)[C@@H](N)C(C)C)C(C)C)C(C)C)[C@@H](C)O)C(=O)O | 1.1 | 8.4
8 | DKKETVWHLE | 93 | 3740
9 | CC[C@H](C)[C@H](NC(=O)[C@H](CC(=O)O)NC(=O)[C@@H](N)CCCCN)C(=O)N[C@@H](CC(C)C)C(=O)N[C@@H](CCC(=O)O)C(=O)N[C@@H](CC(=O)O)C(=O)N[C@@H](CCC(=O)O)C(=O)N[C@@H](CCCNC(=N)N)C(=O)N[C@@H](C)C(=O)N[C@@H](C)C(=O)N[C@H](C(=O)N[C@@H](CC(=O)O)C(=O)N[C@H](C(=O)N[C@@H](Cc1ccc(O)cc1)C(=O)N[C@@H](CS)C(=O)O)[C@@H](C)O)C(C)C | 10500 | 4200
10 | CC[C@H](C)[C@H](NC(=O)[C@H](CO)NC(=O)[C@H](Cc1ccc(O)cc1)NC(=O)[C@H](C)NC(=O)[C@H](CS)NC(=O)[C@H](CC(C)C)NC(=O)[C@H](CC(C)C)NC(=O)[C@H](CS)NC(=O)[C@@H](N)CC(=O)O)C(=O)N[C@@H](CCC(=O)O)C(=O)N[C@@H](Cc1ccccc1)C(=O)NCC(=O)N[C@H](C(=O)N[C@@H](CC(N)=O)C(=O)N[C@H](C(=O)N[C@@H](CO)C(=O)N[C@@H](CCCCN)C(=O)N[C@@H](CCC(=O)O)C(=O)N[C@@H](Cc1c[nH]cn1)C(=O)N[C@@H](CC(=O)O)C(=O)O)[C@@H](C)CC)[C@@H](C)O (H-DCLLCAYSIEFGTNISKEHD-OH) | 343 | 232
11 | CDGERPTLAFLQDVM | 32800 | 15200
12 | SDVGEFRAVTELG | 619 | 4050
13 | CC[C@H](C)[C@H](NC(=O)[C@H](CC(=O)O)NC(=O)[C@H](CC(=O)O)NC(=O)[C@H](Cc1ccccc1)NC(=O)[C@H](C)NC(=O)[C@H](CCCCN)NC(=O)[C@H](CCC(N)=O)NC(=O)[C@@H](NC(=O)[C@H](CCCCN)NC(=O)[C@@H](N)CCC(=O)O)[C@@H](C)CC)C(=O)N[C@@H](C)C(=O)N[C@@H](CCCCN)C(=O)N[C@@H](Cc1ccc(O)cc1)C(=O)N[C@@H](Cc1ccccc1)C(=O)N[C@@H](CO)C(=O)N[C@@H](CCCCN)C(=O)O | 75 | 506
14 | CC[C@H](C)[C@H](NC(=O)[C@@H](N)Cc1c[nH]c2ccccc12)C(=O)N[C@H](C(=O)N[C@@H](CCC(N)=O)C(=O)N[C@@H](CS)C(=O)N[C@@H](Cc1ccccc1)C(=O)N[C@@H](CC(C)C)C(=O)N1CCC[C@H]1C(=O)N[C@H](C(=O)N[C@@H](Cc1ccccc1)C(=O)N[C@@H](CC(C)C)C(=O)N[C@@H](C)C(=O)N[C@@H](CCC(N)=O)C(=O)N1CCC[C@H]1C(=O)N1CCC[C@H]1C(=O)N[C@@H](CO)C(=O)NCC(=O)N[C@@H](CCC(N)=O)C(=O)N[C@@H](CCCNC(=N)N)C(=O)N[C@@H](CCCNC(=N)N)C(=O)O)C(C)C)[C@@H](C)O | – | 25
15 | DVKFPGGGQIVGGVYLLPRR | – | 33
16 | CSCC[C@H](NC(=O)[C@H](CCCNC(=N)N)NC(=O)[C@H](CCSC)NC(=O)[C@H](CCCCN)NC(=O)[C@H](CO)NC(=O)[C@@H](NC(=O)[C@@H]1CCCN1C(=O)[C@@H](N)CCCCN)C(C)C)C(=O)N[C@@H](C)C(=O)N[C@H](C(=O)N1CCC[C@H]1C(=O)N[C@@H](CC(C)C)C(=O)N[C@@H](CC(C)C)C(=O)N[C@@H](CCSC)C(=O)N[C@@H](CCC(N)=O)C(=O)N[C@@H](C)C(=O)N[C@@H](CC(C)C)C(=O)N1CCC[C@H]1C(=O)O)[C@@H](C)O | 161 | 138
17 | CC[C@H](C)[C@H](NC(=O)[C@@H](N)CCCCN)C(=O)N[C@@H](Cc1ccccc1)C(=O)NCC(=O)N[C@@H](CO)C(=O)N[C@@H](CC(C)C)C(=O)N[C@@H](C)C(=O)N[C@@H](Cc1ccccc1)C(=O)N[C@@H](CC(C)C)C(=O)N1CCC[C@H]1C(=O)N[C@@H](CCC(=O)O)C(=O)N[C@@H](CO)C(=O)N[C@@H](Cc1ccccc1)C(=O)N[C@@H](CC(=O)O)C(=O)NCC(=O)N[C@@H](CC(=O)O)C(=O)N1CCC[C@H]1C(=O)N[C@@H](C)C(=O)O | 9 | 143
18 | CC[C@H](C)[C@H](NC(=O)[C@H](Cc1ccc(O)cc1)NC(=O)[C@H](CCC(=O)O)NC(=O)[C@H](Cc1ccccc1)NC(=O)[C@H](C)NC(=O)[C@H](CCC(N)=O)NC(=O)[C@H](CO)NC(=O)[C@@H]1CCCN1C(=O)[C@@H](N)CC(C)C)C(=O)N[C@@H](CC(C)C)C(=O)N[C@@H](Cc1ccc(O)cc1)C(=O)N[C@@H](CC(N)=O)C(=O)N[C@@H](CCCCN)C(=O)NCC(=O)O | 1 | 9.6
19 | CC[C@H](C)[C@H](NC(=O)[C@H](CO)NC(=O)[C@H](CCC(=O)O)NC(=O)[C@H](C)NC(=O)[C@H](CCC(=O)O)NC(=O)[C@H](CCSC)NC(=O)[C@H](CCC(N)=O)NC(=O)[C@H](CCCCN)NC(=O)[C@@H](NC(=O)[C@H](CC(=O)O)NC(=O)[C@H](CCC(=O)O)NC(=O)[C@H](CCSC)NC(=O)[C@H](C)NC(=O)[C@H](CCC(N)=O)NC(=O)[C@H](CC(=O)O)NC(=O)[C@H](CCC(=O)O)NC(=O)[C@@H](N)[C@@H](C)O)[C@@H](C)CC)C(=O)N[C@@H](CO)C(=O)O | 4770 | 2470
20 | FFLLTRILTIPQSLD | 0.3 | 1.2
21 | INEPTAAAIAYGLDR | 4150 | 11600
22 | CSCC[C@H](NC(=O)[C@H](CCSC)NC(=O)[C@@H](N)CCCNC(=N)N)C(=O)N[C@@H](CCC(=O)O)C(=O)N[C@@H](Cc1ccc(O)cc1)C(=O)NCC(=O)N[C@H](C(=O)N[C@H](C(=O)N[C@@H](CCSC)C(=O)N[C@H](C(=O)N[C@@H](CO)C(=O)N[C@@H](Cc1ccc(O)cc1)C(=O)N[C@@H](CCC(N)=O)C(=O)N1CCC[C@H]1C(=O)N[C@@H](CC(C)C)C(=O)O)C(C)C)[C@@H](C)O)[C@@H](C)O | 725 | 1310
23 | EEVDMTPADALDDFD | 5800 | 26000
24 | RELWWVFYAAD | 291 | –
25 | CC[C@H](C)[C@H](NC(=O)[C@H](Cc1c[nH]c2ccccc12)NC(=O)[C@H](CCSC)NC(=O)[C@H](CC(C)C)NC(=O)[C@H](CC(C)C)NC(=O)[C@@H](N)CO)C(=O)N[C@H](C(=O)N[C@@H](CCC(N)=O)C(=O)N[C@@H](CS)C(=O)N[C@@H](Cc1ccccc1)C(=O)N[C@@H](CC(C)C)C(=O)N1CCC[C@H]1C(=O)N[C@H](C(=O)O)C(C)C)[C@@H](C)O | 1.3 | 6.1
26 | TPTEKDEYCARVNH | – | 14000
27 | CC[C@H](C)[C@H](NC(=O)[C@H](C)NC(=O)[C@H](CS)NC(=O)[C@H](C)NC(=O)[C@H](CC(C)C)NC(=O)[C@@H](NC(=O)CNC(=O)[C@H](CC(=O)O)NC(=O)[C@H](CC(=O)O)NC(=O)CNC(=O)[C@@H](N)CCSC)C(C)C)C(=O)N[C@@H](C)C(=O)N[C@H](C(=O)N[C@@H](Cc1c[nH]cn1)C(=O)N[C@@H](C)C(=O)N[C@@H](CCCCN)C(=O)N[C@H](C(=O)N[C@@H](CCCNC(=N)N)C(=O)N[C@@H](CC(=O)O)C(=O)O)[C@@H](C)CC)[C@@H](C)O | 8790 | –

Source: publication PMC2935290 (Journal of immunology (Baltimore, Md. : 1950), 2010)
